Data reported in patent US10167313B2, “Selective caspase inhibitors and uses thereof” (Genesis Technologies Limited, priority 2008, dated 2019).
pIC50: −log10 of the molar value. Where a name gives a salt, the structure may show the parent alone. Read-outs that look alike come from different tables or passages of the source. Non-standard residues stand in square brackets, D forms with d. Residues, ends and D or L forms follow the SMILES beside them. *: point of attachment. Phg = N[C@H](C(=O)O)c1ccccc1; Cbz = O=C(OCc1ccccc1)*; OtBu = CC(C)(C)O*

Columns and labels:
caspase-7 = caspase-7 (Homo sapiens (Human), UniProt P55210); assay: Caspase-7 Inhibitor Drug Screening Kit, fluorometric enzymatic assay
Chain of caspase-7 (P55210 24-198): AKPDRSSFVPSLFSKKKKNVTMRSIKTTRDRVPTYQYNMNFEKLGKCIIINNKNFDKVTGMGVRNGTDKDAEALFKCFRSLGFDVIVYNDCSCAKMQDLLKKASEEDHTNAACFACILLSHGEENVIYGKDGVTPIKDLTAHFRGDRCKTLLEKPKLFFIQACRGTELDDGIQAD
Chain of caspase-7 (P55210 207-303): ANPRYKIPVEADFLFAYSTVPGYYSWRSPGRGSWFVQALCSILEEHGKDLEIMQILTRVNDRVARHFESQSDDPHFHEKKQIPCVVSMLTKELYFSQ
Description: (§1) The level of inhibition of caspase-1, -3, -5, -7, -9 activity was determined by comparison of the relative fluorescence intensity in samples with or without the compound.

caspase-5 = caspase-5 (Homo sapiens (Human), UniProt P51878); assay: Caspase-5 Inhibitor Drug Screening Kit, fluorometric enzymatic assay; details: read-out: Caspase enzymatic activity, IC50 (uM) Caspase 5; 30-minute incubation at 37° C., AFC liberation
Chain of caspase-5 (P51878 137-327): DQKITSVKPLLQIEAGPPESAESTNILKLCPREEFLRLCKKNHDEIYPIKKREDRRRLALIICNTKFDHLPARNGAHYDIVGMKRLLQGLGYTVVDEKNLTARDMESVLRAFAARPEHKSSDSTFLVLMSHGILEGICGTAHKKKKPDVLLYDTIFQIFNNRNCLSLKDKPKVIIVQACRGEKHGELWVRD
Chain of caspase-5 (P51878 347-434): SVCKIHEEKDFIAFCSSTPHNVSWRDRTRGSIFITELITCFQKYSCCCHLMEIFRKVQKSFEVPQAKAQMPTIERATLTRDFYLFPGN
Description: as §1

caspase-3 = caspase-3 (Homo sapiens (Human), UniProt P42574); assay: Caspase-3 Inhibitor Drug Screening Kit, fluorometric enzymatic assay; assay type: biochemical; details: for IC50: 30-minute incubation at 37° C., AFC liberation
Chain of caspase-3 (P42574 29-175): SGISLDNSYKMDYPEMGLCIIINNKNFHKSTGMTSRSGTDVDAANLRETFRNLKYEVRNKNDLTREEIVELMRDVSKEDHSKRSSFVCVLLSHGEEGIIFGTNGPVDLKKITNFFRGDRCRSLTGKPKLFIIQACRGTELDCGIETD
Chain of caspase-3 (P42574 176-277): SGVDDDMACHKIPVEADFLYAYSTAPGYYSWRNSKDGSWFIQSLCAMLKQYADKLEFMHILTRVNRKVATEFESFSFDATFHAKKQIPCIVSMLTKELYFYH
Description: as §1

Hela cells = assay: Inhibition of proteolytic cleavage of PARP in staurosporine-treated live Hela cells; assay type: cell-based
Description: To test the efficacy of caspase-3 inhibitors at the cellular level, the ability of selected compounds to inhibit the proteolytic cleavage of PARP (poly ADP-ribose polymerase) was evaluated in live Hela cells.
Briefly, in this assay Hela cells are seeded in 96 well plates and incubated for 4 hours with staurosporine, a well characterized inducer of apoptosis, alone or together with different concentrations of compound (50, 25, 10 and 3 uM). After formaldehyde-based fixation, the cells are stained with a fluorescein-labeled anti-cleaved PARP antibody (Cell signaling, Cat#: 9547) and counterstained with Hoechst33342 (Invitrogen, Cat#: H3570) to mark all nuclei. Fluorescence images are taken on a Cellomics™ microscope system (Thermo Scientific, Pittsburgh, USA) with the Hoechst stain in the blue channel and the cleaved PARP antibody stain in the green channel. The percentage of cleaved PARP positive cells is determined by calculating the ratio between nuclei with a cleaved PARP antibody staining above a certain threshold and all (Hoechst positive) nuclei. The efficacy of caspase-3 inhibition is determined by calculating the ratio between cleaved PARP positive cells after staurosporine incubation together with compounds and staurosporine incubation without compounds.

caspase-9 = caspase-9 (Homo sapiens (Human), UniProt P55211); assay: Caspase-9 Inhibitor Drug Screening Kit, fluorometric enzymatic assay; details: for IC50: read-out: Caspase enzymatic activity, IC50 (uM) Caspase 9, 30-minute incubation at 37° C., AFC liberation
Chain of caspase-9 (P55211 1-315): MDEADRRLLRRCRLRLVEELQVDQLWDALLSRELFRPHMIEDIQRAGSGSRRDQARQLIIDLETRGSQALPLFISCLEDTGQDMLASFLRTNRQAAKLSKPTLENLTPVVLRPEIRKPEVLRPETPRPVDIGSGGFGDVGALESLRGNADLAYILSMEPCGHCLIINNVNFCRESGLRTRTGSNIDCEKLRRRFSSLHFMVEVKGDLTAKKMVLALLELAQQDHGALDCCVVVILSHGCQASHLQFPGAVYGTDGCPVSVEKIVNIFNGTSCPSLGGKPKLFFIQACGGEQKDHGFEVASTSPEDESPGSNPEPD
Chain of caspase-9 (P55211 331-416): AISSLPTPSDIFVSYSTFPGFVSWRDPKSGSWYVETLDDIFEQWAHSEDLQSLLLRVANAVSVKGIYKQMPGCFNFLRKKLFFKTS
Description: as §1

caspase-1 = caspase-1 (Homo sapiens (Human), UniProt P29466); assay: Caspase-1 Inhibitor Drug Screening Kit, fluorometric enzymatic assay; details: read-out: Caspase enzymatic activity, IC50 (uM) Caspase 1; 30-minute incubation at 37° C., AFC liberation
Chain of caspase-1 (P29466 120-297): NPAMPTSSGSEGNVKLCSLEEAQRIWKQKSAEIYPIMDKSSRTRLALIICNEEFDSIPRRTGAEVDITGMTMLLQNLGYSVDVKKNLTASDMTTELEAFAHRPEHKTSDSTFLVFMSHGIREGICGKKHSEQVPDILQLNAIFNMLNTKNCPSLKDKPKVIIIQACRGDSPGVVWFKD
Chain of caspase-1 (P29466 317-404): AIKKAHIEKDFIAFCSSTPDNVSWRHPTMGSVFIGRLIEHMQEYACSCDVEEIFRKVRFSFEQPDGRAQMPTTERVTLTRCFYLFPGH
Description: as §1

[1] = Homo sapiens, 50 uM, relative to DEVDFMK, read-out: % of inhibition with compound relative to DEVDFMK
[2] = Homo sapiens, read-out: % inhibition of PARP cleavage at 50 uM compound, staurosporine 4 hours, 50 uM compound

Row | Structure (SMILES) | IC50 (caspase-5) [µM] | IC50 (caspase-3) [µM] | activity against caspase-3 (in words) (caspase-3) | inhibition at 50 µM (Hela cells; [2]) [%] | other results
1 | CC(C)(C)OC(=O)C[C@H](N)/C=C/S(=O)(=O)c1ccccc1 [Compound 37, Asp Vinyl phenyl sulfone tosyl salt] | – | > 2 | – | – | –
2 | CC(C)[C@H](NC(=O)[C@@H](NC(=O)[C@H](CC(=O)OC(C)(C)C)NC(=O)OCc1ccccc1)c1ccccc1)C(=O)O [Compound 16, Z-Asp(β-tert-Butyl)-Phg-Val-OH.] (Cbz-Asp(OtBu)-[Phg]-Val-OH) | – | > 2 | devoid of any activity | – | –
3 | CC(C)(C)OC(=O)C[C@H](N)/C=C/S(C)(=O)=O.Cc1ccc(S(=O)(=O)O)cc1 (stereo in doubt) [Compound 33, Asp(β-tert-butyl)methyl vinyl sulfone tosyl salt] | – | > 10 | devoid of any activity | – | –
4 | CC(C)[C@H](NC(=O)[C@H](Cc1ccc2ccccc2n1)NC(=O)[C@H](CC(=O)OC(C)(C)C)NC(=O)OCc1ccccc1)C(=O)N[C@H](/C=C/S(=O)(=O)N1CCOCC1)CC(=O)OC(C)(C)C [Compound 66, Z-Asp(β-tert-Butyl)-Ala(2′-quinolyl)-Val-Asp(β-tert-Butyl)morpholine vinyl sulfone] | – | – | – | 25 | –
5 | CC(C)(C)OC(=O)C[C@@H](/C=C/S(=O)(=O)c1ccccc1)NC(=O)OC(C)(C)C [Compound 36, Boc-Asp-vinyl phenyl sulfone] | – | > 2 | – | – | –
6 | COC(=O)CC[C@H](NC(=O)[C@H](CC(=O)OC)NC(=O)OCc1ccccc1)C(=O)N[C@H](C(=O)N[C@@H](CC(=O)OC)C(=O)CF)C(C)C [DEVD-fmk, reference compound] | – | – | – | 85 | pIC50 (Hela cells; Homo sapiens, staurosporine): 4.70

Continued, in another order:

Row | IC50 (caspase-5) [µM] | IC50 (caspase-3) [µM] | activity against caspase-3 (in words) (caspase-3) | Structure (SMILES) | inhibition at 50 µM (Hela cells; [2]) [%] | other results
7 | > 3 | – | – | CC(C)[C@H](NC(=O)[C@H](CCC(=O)O)NC(=O)[C@H](Cc1ccc(O)cc1)NC(=O)OCc1ccccc1)C(=O)N[C@H](/C=C/S(C)(=O)=O)CC(=O)O [Compound 82, Z-Tyr-Glu-Val-Aspmethyl vinyl sulfone] | – | IC50 (caspase-7; read-out: Caspase enzymatic activity, IC50 (uM) Caspase 7, 30-minute incubation at 37° C., AFC liberation): > 5 µM
8 | > 3.33 | – | – | CC(C)[C@H](NC(=O)[C@H](CCC(=O)O)NC(=O)[C@H](CC(=O)O)NC(=O)OCc1ccccc1)C(=O)N[C@H](/C=C/S(C)(=O)=O)CC(=O)O [Compound 59, Z-Asp-Glu-Val-Aspmethyl vinyl sulfone] | 45 | pIC50 (caspase-7): 7.38; inhibition at 50 µM (Hela cells; [1]): 70%; effectivity in inhibiting PARP cleavage (in words) (Hela cells; relative to DEVD-fmk): showing effectivity; pIC50 (caspase-9): 6.29
9 | – | > 3.33 | The same result was observed | Cc1ccc(S(=O)(=O)N[C@@H](Cc2ccc3ccccc3n2)C(=O)N[C@H](C(=O)N[C@H](/C=C(\Cl)S(C)(=O)=O)CC(=O)O)C(C)C)cc1 [Compound 50, Ts-Ala(2′quinolyl)-Val-Asp- αchlorovinyl methylsulfone] | – | IC50 (caspase-1): > 3.33 µM
10 | – | > 10 | devoid of any activity | CS(=O)(=O)/C=C/[C@@H](N)CC(=O)O.Cc1ccc(S(=O)(=O)O)cc1 [Compound 93, Aspmethyl vinyl sulfone tosyl salt] | – | –
11 | > 3.33 | – | – | CC(C)[C@H](NC(=O)[C@H](Cc1ccccn1)NC(=O)[C@H](CC(=O)O)NC(=O)OCc1ccccc1)C(=O)N[C@H](/C=C/S(=O)(=O)c1ccccc1)CC(=O)O [Compound 85, Z-Asp-Ala(2′-pyridyl)-Val-Aspphenyl vinylsulfone] | 40 | IC50 (caspase-1): > 3.33 µM; IC50 (caspase-9): > 3.33 µM
12 | > 3.33 | – | – | CC(C)[C@H](NC(=O)[C@H](Cc1c[nH]c2ccccc12)NC(=O)[C@H](CC(=O)O)NC(=O)OCc1ccccc1)C(=O)N[C@H](/C=C/S(C)(=O)=O)CC(=O)O [Compound 88, Z-Asp-Trp-Val-Aspmethyl vinyl sulfone] | 45 | inhibition at 50 µM (Hela cells; [1]): 50%; IC50 (caspase-9): > 3.33 µM
13 | > 3.33 | – | – | CC(C)[C@H](NC(=O)[C@@H](NC(=O)[C@H](CC(=O)O)NC(=O)OCc1ccccc1)C1Cc2ccccc2C1)C(=O)N[C@H](/C=C/S(=O)(=O)C(C)C)CC(=O)O [Compound 68, Z-Asp-Indanylglycine-Val-Aspisopropyl vinyl sulfone] | 30 | inhibition at 50 µM (Hela cells; [1]): 50%; IC50 (caspase-1): > 3.33 µM; IC50 (caspase-9): > 3.33 µM
